Assay results from patent US7138361B2, “Herbicidal heterocycles” (E. I. du Pont de Nemours and Company, priority 2000, dated 2006).

Experiments:
Assay type in all cases: in vivo
[1] = system: lambsquarters (Chenopodium album); test: Test B preemergence
How it was run: (§1)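 Post-treatment, species sat 13–15 days under greenhouse conditions before visual scoring against controls, 0 (no effect) through 100 (complete control). Application preemergence to sown seeds or postemergence at 1- to 4-leaf stage, using a non-phytotoxic solvent/surfactant formulation.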

[2] = system: rice (Oryza saliva); test: Test B preemergence
How it was run: as §1

[3] = system: giant foxtail (Setaria faberii); test: Test B preemergence
How it was run: as §1

[4] = system: corn (Zea mays); test: Test B preemergence
How it was run: as §1

[5] = system: Surinam grass (Brachiaria decumbens); test: Test B preemergence
How it was run: as §1

[6] = system: morning glory (Ipomoea hederacea); test: Test B preemergence
How it was run: as §1

[7] = system: crabgrass (Digitaria sanguinalis); test: Test B preemergence
How it was run: as §1

[8] = system: pigweed (Amaranthus retroflexus); test: Test B preemergence
How it was run: as §1

[9] = system: cocklebur (Xanthium strumarium); test: Test B preemergence
How it was run: as §1

[10] = system: velvetleaf (Abutilon theophrasti); test: Test B preemergence
How it was run: as §1

[11] = system: barnyardgrass (Echinochloa crus-galli); test: Test B preemergence
How it was run: as §1

[12] = system: goosegrass (Eleusine indica); test: Test C preemergence
How it was run: (§2)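 Visual injury scores of 0–100, with 100 meaning complete control, were given relative to controls after 12–14 days in the greenhouse. Treatments used a surfactant-containing non-phytotoxic solvent formulation, sprayed on seeded pots preemergence or on 1–4-leaf plants of 2–18 cm postemergence.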

[13] = system: giant foxtail (Setaria faberii); test: Test C preemergence
How it was run: as §2

[14] = system: Sunflower; test: Test C preemergence; details: Rate 125 g/ha; scale 0 to 100, 0 no effect, 100 complete control
[15] = system: Surinam grass (Brachiaria decumbens); test: Test C preemergence
How it was run: as §2

[16] = system: bermudagrass (Cynodon dactylon); test: Test C preemergence
How it was run: as §2

[17] = system: crabgrass (Digitaria sanguinalis); test: Test C preemergence
How it was run: as §2

[18] = system: morningglory (Ipomoea hederacea); test: Test C preemergence
How it was run: as §2

[19] = system: cocklebur (Xanthium strumarium); test: Test C preemergence
How it was run: as §2

[20] = system: velvetleaf (Abutilon theophrasti); test: Test C preemergence
How it was run: as §2

[21] = system: common ragweed (Ambrosia elatior); test: Test C preemergence
How it was run: as §2

[22] = system: Sunflower; test: Test C preemergence; details: Rate 500 g/ha, visual evaluation after 12 to 14 days
[23] = Preemergence, Rate 500 g/ha, scale 0 to 100, 0 no effect, 100 complete control
[24] = preemergence, Rate 125 g/ha, scale of 0 to 100 where 0 is no effect and 100 is complete control, 13 to 15 days
[25] = Rate 125 g/ha, scale 0 to 100, 0 no effect, 100 complete control
[26] = preemergence, Rate 62 g/ha, scale 0 to 100
[27] = preemergence, Rate 500 g/ha, visual evaluation after 12 to 14 days
[28] = preemergence, Rate 250 g/ha, scale 0 to 100, 0 no effect, 100 complete control

## CCCC(C)c1ccn(C2OCN(c3cccc(OC(F)(F)F)c3)C2=O)n1 (stereo not drawn) [Compound 91]
[1]; [23]
  Plant response rating, Lambsquarters: 100
[1]; [24]
  Plant response rating, Lambsquarters: 100
[2]; [23]
  Plant response rating, Rice: 0
[2]; [24]
  Plant response rating, Rice: 0
[3]; [23]
  Plant response rating, Foxtail, Giant: 100
[3]; [24]
  Plant response rating, Foxtail, Giant: 90
[4]; [23]
  Plant response rating, Corn: 30
[4]; [24]
  Plant response rating, Corn: 0
[5]; [23]
  Plant response rating, Surinam grass: 80
[5]; [24]
  Plant response rating, Surinam grass: 70
[6]; [23]
  Plant response rating, Morningglory: 0
[6]; [24]
  Plant response rating, Morningglory: 0
[7]; [23]
  Plant response rating, Crabgrass: 100
[7]; [24]
  Plant response rating, Crabgrass: 100
[8]; [23]
  Plant response rating, Pigweed: 100
[8]; [24]
  Plant response rating, Pigweed: 90
[9]; [23]
  Plant response rating, Cocklebur: 0
[9]; [24]
  Plant response rating, Cocklebur: 0
[10]; [23]
  Plant response rating, Velvetleaf: 0
[10]; [24]
  Plant response rating, Velvetleaf: 0
[11]; [23]
  Plant response rating, Barnyardgrass: 100
[11]; [24]
  Plant response rating, Barnyardgrass: 100
[12]; [25]
  Plant response rating, Goosegrass: 100
[12]; [26]
  Plant response rating, Goosegrass: 90
[12]; [27]
  Plant response rating (0 to 100), Goosegrass: 100
[12]; [28]
  Plant response rating, Goosegrass: 100
[13]; [25]
  Plant response rating, Foxtail, Giant: 30
[13]; [26]
  Plant response rating, Foxtail, Giant: 10
[13]; [27]
  Plant response rating (0 to 100), Foxtail, Giant: 100
[13]; [28]
  Plant response rating, Foxtail, Giant: 30
[14]
  Plant response rating, Sunflower: 0
[15]; [25]
  Plant response rating, Surinam grass: 30
[15]; [26]
  Plant response rating, Surinam grass: 0
[15]; [27]
  Plant response rating (0 to 100), Surinam grass: 80
[15]; [28]
  Plant response rating, Surinam grass: 30
[16]; [25]
  Plant response rating, Bermudagrass: 100
[16]; [26]
  Plant response rating, Bermudagrass: 10
[16]; [27]
  Plant response rating (0 to 100 where 0 is no effect and 100 is complete control), Bermudagrass: 100
[16]; [28]
  Plant response rating, Bermudagrass: 100
[17]; [25]
  Plant response rating, Crabgrass: 100
[17]; [26]
  Plant response rating, Crabgrass: 100
[17]; [27]
  Plant response rating (0 to 100), Crabgrass: 100
[17]; [28]
  Plant response rating, Crabgrass: 100
[18]; [25]
  Plant response rating, Morningglory: 0
[18]; [26]
  Plant response rating, Morningglory: 0
[18]; [27]
  Plant response rating (0 to 100), Morningglory: 0
[18]; [28]
  Plant response rating, Morningglory: 0
[19]; [25]
  Plant response rating, Cocklebur: 0
[19]; [26]
  Plant response rating, Cocklebur: 0
[19]; [27]
  Plant response rating (0 to 100), Cocklebur: 10
[19]; [28]
  Plant response rating, Cocklebur: 0
[20]; [25]
  Plant response rating, Velvetleaf: 0
[20]; [26]
  Plant response rating, Velvetleaf: 0
[20]; [27]
  Plant response rating (0 to 100), Velvetleaf: 0
[20]; [28]
  Plant response rating, Velvetleaf: 0
[21]; [25]
  Plant response rating, Ragweed, Common: 0
[21]; [26]
  Plant response rating, Ragweed, Common: 0
[21]; [27]
  Plant response rating (0 to 100), Ragweed, Common: 0
[21]; [28]
  Plant response rating, Ragweed, Common: 0
[22]
  Plant response rating (0 to 100), Sunflower: 10
